Measured values reported in article PMC3961306, “Comparison of the Cancer Gene Targeting and Biochemical Selectivities of All Targeted Kinase Inhibitors Approved for Clinical Use” (PLoS ONE, 2014).

Columns and labels:
Assay in all cases: Kinase profiling in a biochemical assay panel (mobility shift assays and ELISA), %-inhibition at 1 μM; selectivity entropy
[1] = target: panel of more than 300 wild-type and mutant kinases (313 kinase panel) (Homo sapiens, UniProt O96013)
[2] = target: panel of more than 300 wild-type and mutant kinases (313 kinase panel) (Homo sapiens, UniProt P10721)
[3] = target: panel of more than 300 wild-type and mutant kinases (313 kinase panel) (Homo sapiens, UniProt P10721, D816V)
[4] = target: T1, panel of more than 300 wild-type and mutant kinases (313 kinase panel) (Homo sapiens, UniProt P29322)
T1 sequence (P29322 28-1005): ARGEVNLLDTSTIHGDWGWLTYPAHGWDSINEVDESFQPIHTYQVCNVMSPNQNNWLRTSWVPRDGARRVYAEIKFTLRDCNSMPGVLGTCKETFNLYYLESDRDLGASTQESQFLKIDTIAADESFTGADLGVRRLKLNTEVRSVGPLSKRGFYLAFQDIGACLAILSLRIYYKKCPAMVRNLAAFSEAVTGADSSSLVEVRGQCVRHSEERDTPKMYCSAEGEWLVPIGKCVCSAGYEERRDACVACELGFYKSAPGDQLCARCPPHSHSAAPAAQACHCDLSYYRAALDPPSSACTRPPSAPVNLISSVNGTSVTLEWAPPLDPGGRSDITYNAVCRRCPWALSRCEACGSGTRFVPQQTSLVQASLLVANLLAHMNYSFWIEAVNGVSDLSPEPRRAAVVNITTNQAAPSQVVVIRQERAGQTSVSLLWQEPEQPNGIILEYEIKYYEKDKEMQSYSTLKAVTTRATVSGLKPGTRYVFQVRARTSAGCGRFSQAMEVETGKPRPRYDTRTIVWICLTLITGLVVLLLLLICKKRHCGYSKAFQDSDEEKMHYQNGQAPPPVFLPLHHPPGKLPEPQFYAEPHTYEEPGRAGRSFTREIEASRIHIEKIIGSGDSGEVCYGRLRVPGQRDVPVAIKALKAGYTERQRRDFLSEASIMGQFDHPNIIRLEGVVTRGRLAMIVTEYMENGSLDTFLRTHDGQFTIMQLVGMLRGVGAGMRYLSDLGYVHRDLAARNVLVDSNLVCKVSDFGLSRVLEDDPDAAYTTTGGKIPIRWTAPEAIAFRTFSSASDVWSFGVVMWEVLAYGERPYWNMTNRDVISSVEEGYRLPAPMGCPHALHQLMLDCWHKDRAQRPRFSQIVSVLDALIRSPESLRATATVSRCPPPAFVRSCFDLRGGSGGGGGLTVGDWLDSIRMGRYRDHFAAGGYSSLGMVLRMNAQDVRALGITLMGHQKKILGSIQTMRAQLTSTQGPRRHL

[5] = target: panel of more than 300 wild-type and mutant kinases (313 kinase panel) (Homo sapiens, UniProt P41240)
[6] = target: panel of more than 300 wild-type and mutant kinases (313 kinase panel) (Homo sapiens, UniProt P49759)
[7] = target: panel of more than 300 wild-type and mutant kinases (313 kinase panel) (Homo sapiens, UniProt Q00535)
[8] = target: panel of more than 300 wild-type and mutant kinases (313 kinase panel) (Homo sapiens, UniProt Q16654)
[9] = target: T2, panel of more than 300 wild-type and mutant kinases (313 kinase panel) (Homo sapiens, UniProt Q8NE63)
T2 sequence (Q8NE63 1-616): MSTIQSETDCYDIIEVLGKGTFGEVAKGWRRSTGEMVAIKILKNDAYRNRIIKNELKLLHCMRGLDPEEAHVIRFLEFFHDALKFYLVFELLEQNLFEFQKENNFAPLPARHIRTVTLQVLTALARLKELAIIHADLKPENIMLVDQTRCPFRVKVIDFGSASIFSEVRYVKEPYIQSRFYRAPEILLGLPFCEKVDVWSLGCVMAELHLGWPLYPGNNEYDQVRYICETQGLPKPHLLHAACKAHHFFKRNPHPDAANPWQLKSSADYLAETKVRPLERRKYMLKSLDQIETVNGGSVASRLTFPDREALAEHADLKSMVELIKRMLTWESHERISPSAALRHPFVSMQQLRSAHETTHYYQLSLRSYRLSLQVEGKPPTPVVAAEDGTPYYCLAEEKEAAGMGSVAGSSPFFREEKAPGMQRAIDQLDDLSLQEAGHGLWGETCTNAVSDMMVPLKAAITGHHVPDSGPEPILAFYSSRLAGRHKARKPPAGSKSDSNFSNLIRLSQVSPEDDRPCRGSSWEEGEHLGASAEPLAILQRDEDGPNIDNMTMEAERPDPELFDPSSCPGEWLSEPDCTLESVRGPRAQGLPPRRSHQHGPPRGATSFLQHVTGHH

[10] = target: panel of more than 300 wild-type and mutant kinases (313 kinase panel) (Homo sapiens, UniProt Q9NQU5)
[11] = target: panel of more than 300 wild-type and mutant kinases (313 kinase panel) (Homo sapiens, UniProt P31751)
[12] = target: panel of more than 300 wild-type and mutant kinases (313 kinase panel) (Homo sapiens, UniProt P49841)
[13] = kinase KIT(D816V), compound at 1 μM

Structure (SMILES)	%-inhibition of PAK4 ([1]; kinase PAK4, 1 μM)	%-inhibition of KIT ([2]; kinase KIT, compound at 1 μM)	%-inhibition of KIT(D816V) [3, 13]	%-inhibition of EPHA8 ([4]; kinase EPHA8, compound at 1 μM)	%-inhibition of CSK ([5]; kinase CSK, compound at 1 μM)	%-inhibition, CLK1 ([6]; kinase CLK1, 1 μM compound)	%-inhibition, CDK5/p25 ([7]; kinase CDK5/p25, 1 μM compound)	%-inhibition of PDHK4 ([8]; kinase PDHK4, 1 μM)	%-inhibition of HIPK4 ([9]; kinase HIPK4, compound at 1 μM)	%-inhibition of PAK6 ([10]; kinase PAK6, 1 μM)	%-inhibition, AKT2 ([11]; kinase AKT2, 1 μM compound)	%-inhibition of GSK3β ([12]; kinase GSK3β, compound at 1 μM)	further results
CC(C)(C)c1nc(-c2cccc(NS(=O)(=O)c3c(F)cccc3F)c2F)c(-c2ccnc(N)n2)s1 [dabrafenib]	11%	59%	9%	35%	98%	7%	22%	-1%	92%	9%	–	–	–
CN(C)C/C=C/C(=O)Nc1cc2c(Nc3ccc(F)c(Cl)c3)ncnc2cc1O[C@H]1CCOC1 [afatinib]	–	–	–	–	–	–	–	-3.28%	–	–	–	–	–
Cc1nc(Nc2ncc(C(=O)Nc3c(C)cccc3Cl)s2)cc(N2CCN(CCO)CC2)n1 [dasatinib]	–	–	–	–	–	–	4.63%	–	–	–	–	–	–
Cc1ccc(C(=O)Nc2ccc(CN3CCN(C)CC3)c(C(F)(F)F)c2)cc1C#Cc1cnc2cccnn12 [ponatinib]	–	–	–	100%	–	–	-20%	-1.4%	96%	-3%	–	–	–
O=S(=O)(c1cccc2cnccc12)N1CCCNCC1 [fasudil]	–	-0.648%	4.75%	-10%	-3.28%	32%	–	4.74%	-0.779%	8%	-8%	-8%	–
COc1cc(Nc2c(C#N)cnc3cc(OCCCN4CCN(C)CC4)c(OC)cc23)c(Cl)cc1Cl [bosutinib]	–	23%	78%	99%	84%	–	-25%	–	–	-0.35%	–	–	%-inhibition, AKT2 ([11]; 1 µM): -2.57%
Cc1ccc(Nc2nccc(N(C)c3ccc4c(C)n(C)nc4c3)n2)cc1S(N)(=O)=O [pazopanib]	1.68%	95%	87%	43%	12%	7.57%	9%	-1%	22%	5.54%	-2%	–	–
CCN(CC)CCNC(=O)c1c(C)[nH]c(/C=C2\C(=O)Nc3ccc(F)cc32)c1C [sunitinib]	6.58%	–	–	–	–	–	–	–	–	–	–	–	–
CO[C@H]1C[C@@H]2CC[C@@H](C)[C@@](O)(O2)C(=O)C(=O)N2CCCC[C@H]2C(=O)O[C@H]([C@H](C)C[C@@H]2CC[C@@H](OC(=O)C(C)(CO)CO)[C@H](OC)C2)CC(=O)[C@H](C)/C=C(\C)[C@@H](O)[C@@H](OC)C(=O)[C@H](C)C[C@H](C)/C=C/C=C/C=C/1C [temsirolimus]	-19%	-8%	-2.12%	-6.55%	-1.56%	–	-22%	-1.83%	2.19%	-6.47%	-1.77%	-7.62%	–
CS(=O)(=O)CCNCc1ccc(-c2ccc3ncnc(Nc4ccc(OCc5cccc(F)c5)c(Cl)c4)c3c2)o1 [lapatinib]	–	–	–	–	–	14%	0.201%	-4.31%	9%	0.144%	4.61%	-10%	%-inhibition of KIT ([2]; 1 µM): 9%; %-inhibition of KIT(D816V) ([3]; 1 µM): -3%; %-inhibition of CSK ([5]; 1 µM): 1.88%
COc1cc2c(Nc3ccc(Br)cc3F)ncnc2cc1OCC1CCN(C)CC1 [vandetanib]	-11%	–	–	98%	68%	14%	-25%	-1.83%	20%	-5.42%	-1.77%	-3.71%	–
COc1cc2nccc(Oc3ccc(NC(=O)C4(C(=O)Nc5ccc(F)cc5)CC4)cc3)c2cc1OC [cabozantinib]	-13%	97%	23%	98%	60%	7%	-14%	3.76%	–	-4%	-3.78%	-3.51%	–
C#Cc1cccc(Nc2ncnc3cc(OCCOC)c(OCCOC)cc23)c1 [erlotinib]	–	–	–	–	–	–	–	–	–	–	–	–	%-inhibition of PAK4 ([1]; 1 µM): -4%; %-inhibition of KIT ([2]; 1 µM): 32%; %-inhibition of KIT(D816V) ([3]; 1 µM): 32%; %-inhibition of EPHA8 ([4]; 1 µM): 33%; %-inhibition, AKT2 ([11]; 1 µM): 8%; %-inhibition, CLK1 ([6]; 1 µM): 21%; %-inhibition of GSK3β ([12]; 1 µM): -4.63%; %-inhibition, CDK5/p25 ([7]; 1 µM): 8%; %-inhibition of PDHK4 ([8]; 1 µM): -9%; %-inhibition of HIPK4 ([9]; 1 µM): 37%; %-inhibition of PAK6 ([10]; 1 µM): 5%
